IC50, inhibition and half-life data for 6 molecules are collected here from paper PMC6133092, “Synthesis of 2-alkylthio-N-(quinazolin-2-yl)benzenesulfonamide derivatives: anticancer activity, QSAR studies, and metabolic stability” (Monatshefte Fur Chemie, 2018).

The test system of one data set is MCF-7 (breast cancer). Description: MTT cell viability assay, MCF-7. The format is cell-based, human. The settings on record: mean ± SD. How it is done:
All of the newly synthesized compounds 9–24 were evaluated for their effects on cell viability in three human cancer cell lines: HCT-116 (colon cancer), HeLa (cervical cancer), and MCF-7 (breast cancer). Cisplatin was used as reference drug. […] Considering the activity of derivatives 9–12, 15, 17, 18, and 21–24, it can be noticed that phenyl group as R^3 bring an increase of cytotoxicity in comparison with methyl in place of R^3. However, this impact seems to be the most important for compounds with the bulky group in R^1 and generally, it is less for a set of derivatives with methyl group substituted in R^1 (9–12).
(§1) All chemicals, if not stated otherwise, were obtained from Sigma-Aldrich (St. Louis, MO, USA). The MCF-7 and HeLa cell lines were purchased from Cell Lines Services (Eppelheim, Germany), the HCT-116 cell line was purchased from ATCC (ATCC-No: CCL-247). Cells were cultured in Dulbecco’s modified Eagle’s medium (DMEM) supplemented with 10% fetal bovine serum, 2 mM glutamine, 100 units/cm^3 penicillin, and 100 μg/cm^3 streptomycin. Cultures were maintained in a humidified atmosphere with 5% CO2 at 37 °C in an incubator (Heraceus, HeraCell).
(§2) Cell viability was determined using the MTT (3-(4,5-dimethylthiazol-2-yl)-2,5-diphenyltetrazolium bromide) assay. Cells were seeded in 96-well plates at a density of 5 × 10^3 cells/well and treated for 72 h with the examined compounds in the concentration range 1–100 μM (1, 10, 25, 50, and 100 μM). Following treatment, MTT (0.5 mg/cm^3) was added to the medium and cells were further incubated for 2 h at 37 °C. Cells were lysed with DMSO and the absorbance of the formazan solution was measured at 550 nm with a plate reader (Victor, 1420 multilabel counter). […] The experiment was performed in triplicate. Values are expressed as the mean ± SD of at least three independent experiments.
In general terms: Formazan colour is commonly taken as a measure of viable cells.

The subject of the next data set is NCI-H522. Description: NCI-60 single dose screen, NCI-H522. The format is cell-based. The settings on record: Homo sapiens, NSCLC, single concentration 10^−5 M, read-out: IGP (inhibition growth percent) NCI-H522. How it is done:
(§3) Aside from above, compounds 9–14 and 17–24 were also submitted to National Cancer Institute and evaluated for the cytotoxic effects toward 60 cell lines at a single dose of 10 μM (Table 2). […] As it was summarized in Table 2, leukemia RPMI-8226 and NSCLC A549/ATCC were most sensitive to compounds 18, 22, and 24. These derivatives in 10 μM concentration inhibited the growth of approximately 50% cells belonging to the above mention cell lines.
(§4) Cytotoxicity evaluation of compounds 9–14 and 17–24 was performed at the National Cancer Institute according to NCI-60 DTP human tumor cell line screen procedure.

In the next data set the test system is UO-31. Description: NCI-60 single dose screen, UO-31. The format is cell-based. The settings on record: Homo sapiens, Renal cancer, single concentration 10^−5 M, read-out: IGP (inhibition growth percent) UO-31. The method, then: as §3, §4
The next data set concerns UACC-62. Description: NCI-60 single dose screen, UACC-62. The format is cell-based. The settings on record: Homo sapiens, Melanoma, single concentration 10^−5 M, read-out: IGP (inhibition growth percent) UACC-62. The method, then: as §3, §4
The test system of another data set is HOP-92. The data set can be described thus: NCI-60 single dose screen, HOP-92. The settings on record: Homo sapiens, NSCLC, single concentration 10^−5 M, read-out: IGP (inhibition growth percent) HOP-92. The format is cell-based. How it is done:
as §3, §4

The subject of a further data set is RPMI-8226. The data set can be described thus: NCI-60 single dose screen, RPMI-8226. The data set is classed as cell-based. The settings on record: Homo sapiens, RPMI-8226, Leukemia; single concentration 10^−5 M; read-out: IGP (inhibition growth percent) RPMI-8226. How it is done:
as §3, §4

For the next data set, the system named is HeLa (cervical cancer). Description: MTT cell viability assay, HeLa. The data set is classed as cell-based. The settings on record: Homo sapiens. How it is done: as §1, §2
A further data set relates to HCT-116 (colon cancer). Description: MTT cell viability assay, HCT-116. The format is cell-based. The settings on record: Homo sapiens, 72 h, mean ± SD. How it is done:
as §1, §2

A further data set deals with MCF-7. The data set can be described thus: NCI-60 single dose screen, MCF-7. The format is cell-based. The settings on record: Homo sapiens, MCF7; Breast cancer; single concentration 10^−5 M; read-out: IGP (inhibition growth percent) MCF-7. How it is done:
as §3, §4

A further data set deals with MOLT-4. The data set can be described thus: NCI-60 single dose screen, MOLT-4. The settings on record: Homo sapiens, Leukemia, single concentration 10^−5 M, read-out: IGP (inhibition growth percent) MOLT-4. The data set is classed as cell-based. The method, then: as §3, §4
In a further data set the test system is PC-3. The data set can be described thus: NCI-60 single dose screen, PC-3. The format is cell-based. The settings on record: Homo sapiens, Prostate cancer, single concentration 10^−5 M, read-out: IGP (inhibition growth percent) PC-3. The method, then:
as §3, §4

A further data set has as its system EKVX. The data set can be described thus: NCI-60 single dose screen, EKVX. The settings on record: Homo sapiens, NSCLC, single concentration 10^−5 M, read-out: IGP (inhibition growth percent) EKVX. The data set is classed as cell-based. How it is done: as §3, §4
A further data set has as its system SR. Description: NCI-60 single dose screen, SR. The data set is classed as cell-based. The settings on record: Homo sapiens, Leukemia, single concentration 10^−5 M, read-out: IGP (inhibition growth percent) SR. How it is done: as §3, §4
Data set [1] is described as follows: Metabolic stability in human liver microsomes with NADPH. The format is in vitro ADME. The settings on record: pooled human liver microsomes, pH 7.4, human liver microsomes 0.5 mg/cm^3, NADPH 1 mM, 10 μM compound, 37 °C, read-out: in vitro metabolic half-life t1/2. The method, then:
Selected derivatives were submitted to metabolic stability study to assess their ability to remain unchanged in the presence of human metabolic enzymes. Human liver microsomes were used as they are a rich source of all common CYP isoenzymes. In vitro incubations were performed in the presence of NADPH as a cofactor and the disappearance of a derivative was followed using LC–MS technique. The in vitro metabolic half-life values are gathered in Fig. 3.
Stock solutions of studied compounds were prepared at concentration of 10 mM in DMSO. […] Incubation mixture contained 10 μM of a studied derivative, 1 mM of NADPH (Sigma-Aldrich) and 0.5 mg/cm^3 of pooled human liver microsomes (HLM, Sigma-Aldrich) in potassium phosphate buffer (0.1 M, pH 7.4). Incubation was carried out in thermostat at 37 °C and started by addition of studied compound. 50 mm^3 samples were taken at starting point and after 5, 15, 30, 45, and 60 min. Enzymatic reaction was terminated by the addition of the equal volume of ice-cold acetonitrile. Incubations were performed in triplicates, the average t1/2 and standard deviation was calculated. Control incubations were performed without NADPH to assess chemical instability. After collection, samples were immediately centrifuged (10 min, 10,000 rpm) and resulted supernatant was directly analyzed or kept in − 80 °C until LC–MS analysis. Natural logarithm of a compound over IS peak area ratio was plotted versus incubation time. Metabolic half-time (t1/2) was calculated from the slope of the linear regression.
LC–MS analysis was performed on an Agilent 1260 system coupled to SingleQuad 6120 mass spectrometer (Agilent Technologies, Santa Clara, CA, USA). Poroshell EC-C18 (2.1 mm × 150 mm, 2.7 μm, Agilent Technologies, Santa Clara, CA, USA) was used in reversed-phase mode with gradient elution starting with 5% of phase A (10 mM ammonium formate in water) and 95% of phase B (10 mM ammonium formate in acetonitrile–water mixture, 95:5 v/v). […] Total analysis time was 15 min at 40 °C, flow rate was 1 cm^3/min and the injection volume was 5 mm^3. The mass spectrometer was equipped with electrospray ion source and operated in positive ionization. Mass analyzer was set individually to each compound to detect [M+H]^+ protonated molecule. MSD parameters of the ESI source were as follows: nebulizer pressure 35 psig (N2), drying gas […] (N2), drying gas temperature 300 °C, capillary voltage 3 kV, fragmentor voltage 150 V.

In the next data set the test system is HCT-116. The data set can be described thus: NCI-60 single dose screen, HCT-116. The data set is classed as cell-based. The settings on record: Homo sapiens, Colon cancer, single concentration 10^−5 M, read-out: IGP (inhibition growth percent) HCT-116. How it is done: as §3, §4
In another data set the test system is A549/ATCC. Description: NCI-60 single dose screen, A549/ATCC. The data set is classed as cell-based. The settings on record: Homo sapiens, A549, NSCLC; single concentration 10^−5 M; read-out: IGP (inhibition growth percent) A549/ATCC. The method, then:
as §3, §4

[2] abbreviates: Table 4, repeats Table 1 values without SD and unit.

The term IC50 denotes the concentration needed to halve the response being measured. Read a low IC50 as greater potency. For `N.N.[Cl][Pt][Cl]` [Cisplatin, reference compound], the IC50 with MCF-7 (breast cancer) (72 h) is 3 ± 0.1 µM.

For `Cc1cc(S(=O)(=O)Nc2nc(C)c3ccccc3n2)c(SCc2ccccc2)cc1Cl` [Compound 9, 2-Benzylthio-4-chloro-5-methyl-N-(4-methylquinazolin-2-yl)benzenesulfonamide], the inhibition at 10 µM in the data set on NCI-H522 stood at 9%; in the data set with UO-31, 27%; in the data set on UACC-62, 29%; in the data set on HOP-92, 3%; with RPMI-8226 it was 15%; with MCF-7, 2%. Moreover, the inhibition at 10 µM turned out to be 12% with MOLT-4, 2% with PC-3, 3% in the data set on EKVX and 6% in the data set on SR. Further, the IC50 with HeLa (cervical cancer) (MTT, 72 h, mean ± SD) worked out at 75 ± 5 µM; in the data set on HeLa (cervical cancer) (setting [2]) it was 75 µM; with HCT-116 (colon cancer), 61 ± 1 µM; with MCF-7 (breast cancer) (Homo sapiens, MCF7, 72 h) it was 100 ± 2 µM. Besides, the half-life at 10 μM in data set [1] amounted to 51.9 min.

Take `Cc1cc(S(=O)(=O)Nc2nc(-c3ccccc3)c3ccccc3n2)c(SCC(N)=O)cc1Cl` [Compound 14, 2-Carbamoylmethylthio-4-chloro-5-methyl-N-(4-phenylquinazolin-2-yl)benzenesulfonamide]: the inhibition at 10 µM with NCI-H522 was found to be 4%; in the data set with UO-31 it was 2%; with MOLT-4, 9%; in the data set on SR it was 17%. For the same molecule, the IC50 with HeLa (cervical cancer) (MTT, 72 h, mean ± SD) was 120 ± 1 µM; in the data set on HCT-116 (colon cancer) it was 85 ± 3 µM; in the data set on MCF-7 (breast cancer) (Homo sapiens, MCF7, 72 h), 155 ± 9 µM. Further, the half-life at 10 μM in [1] is 90.8 min.

With `Cc1nc(NS(=O)(=O)c2cc(C(=O)Nc3ccc(Cl)cc3)c(Cl)cc2SCC(N)=O)nc2ccccc12` [Compound 19, 2-Carbamoylmethylthio-4-chloro-5-(4-chlorophenylcarbamoyl)-N-(4-methylquinazolin-2-yl)benzenesulfonamide], the inhibition at 10 µM is 8% with NCI-H522; 7% in the data set on UO-31; 8% in the data set with HOP-92; 3% in the data set on RPMI-8226; 4% in the data set with MCF-7; 3% in the data set on MOLT-4. The inhibition at 10 µM in the data set on PC-3, in the data set with HCT-116 and in the data set on SR was 4% each time. The IC50 came out at 117 ± 5 µM with HeLa (cervical cancer) (MTT, 72 h, mean ± SD); 117 µM in the data set on HeLa (cervical cancer) (setting [2]); 100 ± 4 µM with HCT-116 (colon cancer); 105 ± 3 µM with MCF-7 (breast cancer) (Homo sapiens, MCF7, 72 h).

For `NC(=O)CSc1cc(Cl)c(C(=O)Nc2ccc(Cl)cc2)cc1S(=O)(=O)Nc1nc(-c2ccccc2)c2ccccc2n1` [Compound 20, 2-Carbamoylmethylthio-4-chloro-5-(4-chlorophenylcarbamoyl)-N-(4-phenylquinazolin-2-yl)benzenesulfonamide], the inhibition at 10 µM in the data set on NCI-H522 is 11%; in the data set with UO-31, 3%; in the data set on UACC-62, 8%; in the data set with HOP-92, 4%; in the data set on RPMI-8226, 10%; with MCF-7, 3%. The inhibition at 10 µM turned out to be 5% with MOLT-4, 2% in the data set with PC-3 and 6% in the data set with SR. Moreover, the IC50 in the data set on HeLa (cervical cancer) (MTT, 72 h, mean ± SD) came out at 110 ± 7 µM; in the data set on HeLa (cervical cancer) (setting [2]), 110 µM; in the data set on HCT-116 (colon cancer) it was 140 ± 4 µM; in the data set with MCF-7 (breast cancer) (Homo sapiens, MCF7, 72 h) it was 92 ± 1 µM. Besides, the half-life at 10 μM in data set [1] is 49.7 min.

On to `Cc1ccc(NC(=O)c2cc(S(=O)(=O)Nc3nc(C)c4ccccc4n3)c(SCc3ccccc3)cc2Cl)cc1` [Compound 23, 2-Benzylthio-4-chloro-5-(4-methylphenylcarbamoyl)-N-(4-methylquinazolin-2-yl)benzenesulfonamide], for which the inhibition at 10 µM with UO-31 is 21%; in the data set on A549/ATCC, 6%; in the data set with RPMI-8226 it was 17%; with MCF-7 it was 8%; in the data set on MOLT-4 it was 5%; with PC-3, 18%. Further, the inhibition at 10 µM worked out at 15% in the data set on EKVX and 8% in the data set with SR. Besides, the IC50 with HeLa (cervical cancer) (MTT, 72 h, mean ± SD) amounted to 75 ± 2 µM; in the data set on HeLa (cervical cancer) (setting [2]), 75 µM; in the data set on HCT-116 (colon cancer), 70 ± 1 µM; in the data set with MCF-7 (breast cancer) (Homo sapiens, MCF7, 72 h), 97 ± 2 µM. Moreover, the half-life at 10 μM in data set [1] stood at 35 min.
